Series [1] concerns the target 5-HT2A receptor (Homo sapiens (Human), UniProt P28223). The format is cell-based. Conditions: for 5-HT2A Arrestin % Act @ Max Dose / agonist type in the 5-HT2A arrestin recruitment assay, in words: beta-arrestin recruitment; for arrestin bias: potency in arrestin assay compared to Ca^2+ signaling assay: 5-HT2A arrestin vs G protein-dependent Ca^2+ assay. The essentials:
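PathHunter enzyme-fragment complementation in cells expressing ProLink-tagged 5-HT2A and β-arrestin–β-galactosidase fusion. Cells incubated at 37 °C before testing; recruitment read by chemiluminescence. Agonist activity expressed as % of maximal control ligand response after vehicle subtraction.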

For series [2], the target named is Alpha1A receptor (Homo sapiens (Human), UniProt P35348). Briefly: FLIPR Ca^2+ flux agonist assay at Alpha1A. Type of series: cell-based. On the procedure: Disclosed compounds were tested for agonist activity at several adrenergic (Alpha1A and Alpha2A) and dopamine (D1 and D2) receptor subtypes using Ca^2+ flux functional assays, with the results summarized in Table 6. Selectivity for the 5-HT2A receptor over these other targets varied depending on the specific target and compound.
(§1) Functional Assays at Adrenergic and Dopamine Receptors. Agonist activity at Alpha1A, Alpha2A, D1, and D2 receptors was determined using a FLIPR Ca^2+ flux assay at WuXi AppTec (Hong Kong) Limited according to their standard protocols. Briefly, stably transfected cells expressing the receptor of interest were grown and plated in a 384 well plate and incubated at 37° C. and 5% CO2 overnight. A solution of 250 mM probenecid in 1 mL FLIPR assay buffer was prepared fresh. This was combined with a fluorescent dye (Fluo-4 Direct™) to make a final assay concentration of 2.5 mM. Compounds were diluted 1:3.16 for 10 points and 750 nL was added to a 384 well compound plate using ECHO along with 30 μL assay buffer. The fluorescent dye was then added to the assay plate along with assay buffer to a final volume of 40 μL. The cell plate was incubated for 50 min at 37° C. and 5% CO2 and placed into the FLIPR Tetra along with the compound plate. 10 μL of references and compounds were then transferred from the compound plate into the cell plate and the fluorescent signal was read.

Series [3] addresses D1 receptor (Homo sapiens (Human), UniProt P21728). Kind of series: FLIPR Ca^2+ flux agonist assay at D1. Type of series: cell-based. The protocol: as §1, with “Compounds were diluted 1:3.16 for 10 points and 750 nL was added to a 384 well compound plate using ECHO along with 30 μL assay buffer.” left out
For series [4], the system named is C57BL/6 mice. Kind of series: Mouse head twitch response (HTR) assay. Conditions: SC; for head twitch response (HTR), in words: mice; for head twitch response (HTR), in words / # HTR at Most Efficacious Dose / Emax (95% CI): 20 min observation; for Most Efficacious Dose / # HTR at Most Efficacious Dose / Emax (95% CI): mouse HTR; for Emax (95% CI): curve fit. The format is in vivo. On the procedure:
Agonists of the 5-HT2A receptor are well known to induce this effect in rodents and the potency of this HTR is correlated with hallucinogenic potency in humans.
Animals. Adult male C57BL/6 mice, aged 6-8 weeks (body weight 20-25 g) were used in this experiment. Animals were housed under controlled temperatures and 12-hour light/dark cycles (lights on between 07:00-19:00 h), with ad libitum food and water. This study was carried out in strict accordance with the requirements of the Committee for the Purpose of Control and Supervision of Experiments on Animals (CPCSEA), India. All efforts were made to minimize suffering.
Drugs and Drug Administration. Compound 1 was synthesized as described above. It was administered subcutaneously (SC) dissolved in saline vehicle at a volume of 10 mL/kg. Five doses were tested, with n=6 animals/group. Doses were calculated on the basis of the freebase.
Procedure. Mice were administered one dose of the drug and immediately placed into a small open field for behavioral observation. Animals were observed continuously for 20 mins and the number of head twitches (HTs) were counted by an observer blind to the treatment condition.
Statistical Analysis. The data points shown are the mean±standard error of the mean (SEM). Analysis was performed using GraphPad Prism 6. Curves were fit using a non-linear gaussian distribution to calculate ED50 and Emax values.
Additional disclosed compounds were tested in the mouse head twitch response (HTR) assay according to the procedure described in Example 34. […] Lastly, compounds with much larger benzyl and phenethyl substituents on the amine nitrogen (e.g., 10 and 11) were low efficacy in this assay, consistent with their lower maximal efficacy in the arrestin functional assay (see Example 32).

The nature of series [5]: Metabolic stability in mouse liver microsomes (MLM). The format is in vitro ADME. Conditions: mouse, pooled mouse liver microsomes, pH 7.4, MLM (CD-1), NADPH. From the text:
MLM Stability Pooled MLM from CD-1 mice (BIOIVT M00501) were used.
(In general: Microsomes from liver hold many membrane-bound enzymes, among them those of drug oxidation.)

Series [6] is described as follows: Metabolic stability in rat liver microsomes (RLM). The format is in vitro ADME. Conditions: both sexes, rat, pooled rat liver microsomes, pH 7.4, NADPH.

The values that follow come from patent publication US20240368151A1, “NOVEL ERGOLINES AND METHODS OF TREATING MOOD DISORDERS” (priority 2021, published 2024).

Alpha1A receptor, sequence (P35348 whole entry, looked up): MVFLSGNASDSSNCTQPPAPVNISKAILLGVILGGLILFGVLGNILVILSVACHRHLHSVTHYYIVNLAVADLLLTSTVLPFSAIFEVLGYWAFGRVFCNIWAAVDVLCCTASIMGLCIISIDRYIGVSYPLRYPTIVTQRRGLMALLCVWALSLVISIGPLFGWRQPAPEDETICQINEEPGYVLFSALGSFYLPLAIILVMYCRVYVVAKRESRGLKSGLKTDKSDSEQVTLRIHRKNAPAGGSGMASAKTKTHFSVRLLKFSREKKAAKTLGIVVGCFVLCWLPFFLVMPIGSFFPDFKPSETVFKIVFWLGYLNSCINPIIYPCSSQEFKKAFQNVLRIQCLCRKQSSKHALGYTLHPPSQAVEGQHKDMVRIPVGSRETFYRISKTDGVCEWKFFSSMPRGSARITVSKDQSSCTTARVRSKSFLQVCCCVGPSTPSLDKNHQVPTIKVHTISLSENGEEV
D1 receptor, sequence (P21728 whole entry, looked up): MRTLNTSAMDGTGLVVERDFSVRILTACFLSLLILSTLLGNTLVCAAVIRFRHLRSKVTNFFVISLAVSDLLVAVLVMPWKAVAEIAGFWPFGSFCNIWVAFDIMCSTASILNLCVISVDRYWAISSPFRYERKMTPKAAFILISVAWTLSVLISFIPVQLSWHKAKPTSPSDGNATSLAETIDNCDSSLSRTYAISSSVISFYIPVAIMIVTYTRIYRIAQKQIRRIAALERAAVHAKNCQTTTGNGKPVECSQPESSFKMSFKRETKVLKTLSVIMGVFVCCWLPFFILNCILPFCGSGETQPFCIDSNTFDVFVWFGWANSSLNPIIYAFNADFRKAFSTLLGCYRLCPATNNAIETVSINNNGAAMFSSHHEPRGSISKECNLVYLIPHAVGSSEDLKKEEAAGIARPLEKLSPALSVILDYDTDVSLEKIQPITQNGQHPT

For the compound `CCCN1C[C@H](C(=O)N(CC)CC)C=C2c3cccc4[nH]cc(c34)C[C@H]21` [Compound 1, (6aR,9R)-N,N-diethyl-7-propyl-4,6,6a,7,8,9-hexahydroindolo[4,3-fg]quinoline-9-carboxamide], in series [1], the “5-HT2A Arrestin % Act @ Max Dose” value is given as 128.71% and the “agonist type in the 5-HT2A arrestin recruitment assay, in words” value (from here on “agonist type”) is “full agonists”. Moreover, the “Alpha 1A % Act @ Max Dose” value in series [2] is listed as 80.6%. Further, in series [3], the “D1 % Act @ Max Dose” value came to 108.68%. Besides, in series [4], the “head twitch response (HTR), in words” value is “induced a robust and dose-dependent HTR”; the “Most Efficacious Dose” value is given as “(1 mg/kg)”; the “# HTR at Most Efficacious Dose” value is recorded as 19.5; the “Emax (95% CI)” value was 21.63. Further, in series [5], the half-life at 1 μM stood at 2.3 min. The compound also had a half-life at 1 μM in series [6] of 16.2 min.
For `CCN(CC)C(=O)[C@@H]1C=C2c3cccc4[nH]cc(c34)C[C@H]2N(CCCF)C1` [Compound 2, (6aR,9R)-N,N-diethyl-7-(3-fluoropropyl)-4,6,6a,7,8,9-hexahydroindolo[4,3-fg]quinoline-9-carboxamide], in series [1], the “5-HT2A Arrestin % Act @ Max Dose” value is listed as 114.55% and the “agonist type” value is listed as “full agonists”. Further, the “Alpha 1A % Act @ Max Dose” value in series [2] amounted to 109.68%. Moreover, the “D1 % Act @ Max Dose” value in series [3] came to 113.6%. In addition, in series [4], the “Most Efficacious Dose” value is “(0.32 mg/kg)”, the “# HTR at Most Efficacious Dose” value was found to be 21.833 and the “Emax (95% CI)” value was found to be 20.47. Moreover, the half-life at 1 μM in series [5] is 2.67 min. Also, the half-life at 1 μM in series [6] was found to be 12 min.
In the case of `CCCN1C[C@H](C(=O)N[C@H](C)CC)C=C2c3cccc4[nH]cc(c34)C[C@H]21` [Compound 3, (6aR,9R)-N-((R)-sec-butyl)-7-propyl-4,6,6a,7,8,9-hexahydroindolo[4,3-fg]quinoline-9-carboxamide], in series [1], the “5-HT2A Arrestin % Act @ Max Dose” value worked out at 109.57% and the “agonist type” value is reported as “full agonists”. Also, the “Alpha 1A % Act @ Max Dose” value in series [2] is 124.7%. Besides, the “D1 % Act @ Max Dose” value in series [3] is on record as 121.3%. In series [4], the “Most Efficacious Dose” value was “(0.32 mg/kg)”, the “# HTR at Most Efficacious Dose” value came out at 27.0 and the “Emax (95% CI)” value is 25.56. In series [5], this compound returned a half-life at 1 μM of 1.6 min. Besides, the half-life at 1 μM in series [6] worked out at 4.4 min.
As for `CCCN1C[C@H](C(=O)N2[C@@H](C)C[C@@H]2C)C=C2c3cccc4[nH]cc(c34)C[C@H]21` [Compound 4, ((2S,4S)-2,4-dimethylazetidin-1-yl)((6aR,9R)-7-propyl-4,6,6a,7,8,9-hexahydroindolo[4,3-fg]quinolin-9-yl)methanone], in series [1], the “5-HT2A Arrestin % Act @ Max Dose” value came out at 116.8% and the “agonist type” value is “full agonists”. The “Alpha 1A % Act @ Max Dose” value in series [2] came to 118.64%. Besides, the “D1 % Act @ Max Dose” value in series [3] came out at 113.6%. For the same compound, in series [4], the “head twitch response (HTR), in words” value is reported as “less efficacious than its N-methyl counterpart compound Int11”; the “Most Efficacious Dose” value is reported as “(0.1 mg/kg)”; the “# HTR at Most Efficacious Dose” value is 4.667; the “Emax (95% CI)” value is 4.034. For the same compound, in series [5], the half-life at 1 μM amounted to 0.8 min. The same compound came in with a half-life at 1 μM in series [6] of 12.8 min.
With `CCCN1C[C@H](C(=O)NC(CC)CC)C=C2c3cccc4[nH]cc(c34)C[C@H]21` [Compound 6, (6aR,9R)-N-(pentan-3-yl)-7-propyl-4,6,6a,7,8,9-hexahydroindolo[4,3-fg]quinoline-9-carboxamide], in series [1], the “5-HT2A Arrestin % Act @ Max Dose” value came out at 102.75% and the “agonist type” value is reported as “full agonists”. Further, in series [3], the “D1 % Act @ Max Dose” value is listed as 93.13%. Besides, in series [4], the “Most Efficacious Dose” value is “(1 mg/kg)”, the “# HTR at Most Efficacious Dose” value is recorded as 20.5 and the “Emax (95% CI)” value worked out at 23.06. The same compound registered a half-life at 1 μM in series [5] of 0.6 min. For the same compound, the half-life at 1 μM in series [6] worked out at 1.66 min.
As for `CCN(CC)C(=O)[C@@H]1C=C2c3cccc4[nH]cc(c34)C[C@H]2N(Cc2ccccc2OC)C1` [Compound 10, (6aR,9R)-N,N-diethyl-7-(2-methoxybenzyl)-4,6,6a,7,8,9-hexahydroindolo[4,3-fg]quinoline-9-carboxamide], in series [1], the “arrestin bias: potency in arrestin assay compared to Ca^2+ signaling assay” value is recorded as > 50 fold; the “5-HT2A Arrestin % Act @ Max Dose” value stood at 47.06%; the “agonist type” value was “partial agonists”. In series [2], the “Alpha 1A % Act @ Max Dose” value is given as 26.56% and the “agonist efficacy at Alpha1A, in words” value is “very low efficacy agonists”. Besides, the “D1 % Act @ Max Dose” value in series [3] is 114.19%. Besides, in series [4], the “head twitch response (HTR), in words” value is on record as “low efficacy”; the “Most Efficacious Dose” value is recorded as “(3.2 mg/kg)”; the “# HTR at Most Efficacious Dose” value is 6.5; the “Emax (95% CI)” value was found to be 7.749. In series [5], this compound returned a half-life at 1 μM of 1 min. This compound registered a half-life at 1 μM in series [6] of 3.4 min.
Consider `CCN(CC)C(=O)[C@@H]1C=C2c3cccc4[nH]cc(c34)C[C@H]2N(CCc2ccccc2OC)C1` [Compound 11, (6aR,9R)-N,N-diethyl-7-(2-methoxyphenethyl)-4,6,6a,7,8,9-hexahydroindolo[4,3-fg]quinoline-9-carboxamide], for which, in series [1], the “arrestin bias: potency in arrestin assay compared to Ca^2+ signaling assay” value is > 50 fold; the “5-HT2A Arrestin % Act @ Max Dose” value came to 54.255%; the “agonist type” value is given as “partial agonists”. Also, in series [2], the “Alpha 1A % Act @ Max Dose” value turned out to be 28.23% and the “agonist efficacy at Alpha1A, in words” value is reported as “very low efficacy agonists”. In addition, in series [3], the “D1 % Act @ Max Dose” value was determined as 90.9%. Also, in series [4], the “head twitch response (HTR), in words” value is “low efficacy”; the “Most Efficacious Dose” value is listed as “(3.2 mg/kg)”; the “# HTR at Most Efficacious Dose” value was determined as 12.0; the “Emax (95% CI)” value is on record as 19.79. The compound also came in with a half-life at 1 μM in series [5] of 0.917 min. For the same compound, the half-life at 1 μM in series [6] is 1.16 min.

A word on the half-life: it is the time needed for the level to fall by half in the phase considered. Low values mean rapid decline, high ones slow decline.
